Assay results published in patent US20260199204A1, “ANTIMICROBIAL COMBINATIONS” (Clariant International Ltd, priority 2022, published 2026).
Converted amounts (≈) assume the structure as drawn. Read-outs that look alike come from different tables or passages of the source. One block for each compound: values may come before it.

Columns and labels:
Type in all cases: cell-based
[1] = tested on: Pseudomonas aeruginosa (P.a.); experiment: Challenge test (European Pharmacopoeia 10th Edition, 5.1.3) in O/W-cream gel; design: key: An A-criteria is related to an excellent protection of a formulation; B-criteria is needed to show sufficient protection but additional risk eliminating measures related to packaging and raw material quality need to be applied; With an F-criteria for any of the organism tested the whole challenge test is failed and the preservation/protection of the formulation is not sufficient; settings: pH 7
Description: (§1) Following examples show challenge test results that were done according to EUROPEAN PHARMACOPOEIA 10TH EDITION. Chapter 5.1.3. As representative microorganisms the following test germs were used: Pseudomonas aeruginosa (gram-negative organism, short “P.a.”), Staphylococcus aureus (gram-positive organism, short “S.a.”), Escherichia coli (gram negative organism, short “E.c.”), Candida albicans (yeast, short “C.a.”) and Aspergillus brasiliensis (mold, short “A.b.”). The A criteria express the recommended efficacy to be achieved. In justified cases where the A criteria cannot be attained, for example for reasons of an increased risk of adverse reactions, the B criteria must be satisfied. An A-criteria is related to an excellent protection of a formulation, B-criteria is needed to show sufficient protection but additional risk eliminating measures related to packaging and raw material quality need to be applied. With an F-criteria for any of the organism tested the whole challenge test is failed and the preservation/protection of the formulation is not sufficient. As a reference an unpreserved sample of the respective formulation was tested as well. As a test system a difficult to preserve formulation was used: Leave-on: O/W-Cream Gel [table]

[2] = tested on: Staphylococcus aureus (S.a.); experiment: as above; design: key: An A-criteria is related to an excellent protection of a formulation; B-criteria is needed to show sufficient protection but additional risk eliminating measures related to packaging and raw material quality need to be applied; With an F-criteria for any of the organism tested the whole challenge test is failed and the preservation/protection of the formulation is not sufficient; settings: pH 7
Description: as §1

Candida albicans (C.a.) = experiment: as above; design: key: An A-criteria is related to an excellent protection of a formulation; B-criteria is needed to show sufficient protection but additional risk eliminating measures related to packaging and raw material quality need to be applied; With an F-criteria for any of the organism tested the whole challenge test is failed and the preservation/protection of the formulation is not sufficient; settings: pH 7
Description: as §1

[3] = tested on: Aspergillus brasiliensis (A.b.); experiment: as above; design: key: An A-criteria is related to an excellent protection of a formulation; B-criteria is needed to show sufficient protection but additional risk eliminating measures related to packaging and raw material quality need to be applied; With an F-criteria for any of the organism tested the whole challenge test is failed and the preservation/protection of the formulation is not sufficient; settings: pH 7
Description: as §1

Escherichia coli (E.c.) = experiment: as above; design: key: An A-criteria is related to an excellent protection of a formulation; B-criteria is needed to show sufficient protection but additional risk eliminating measures related to packaging and raw material quality need to be applied; With an F-criteria for any of the organism tested the whole challenge test is failed and the preservation/protection of the formulation is not sufficient
Description: as §1

[4] = tested on: all test organisms (P.a., S.a., E.c., C.a., A.b.); experiment: Challenge test in O/W-cream gel, overall result; design: key to Challenge test criteria for all test organisms: An A-criteria is related to an excellent protection of a formulation; B-criteria is needed to show sufficient protection but additional risk eliminating measures related to packaging and raw material quality need to be applied; With an F-criteria for any of the organism tested the whole challenge test is failed and the preservation/protection of the formulation is not sufficient; settings: pH 7
Description: as §1

[5] = tested on: Aspergillus brasiliensis DSM 1988; experiment: MIC agar dilution test, mold; settings: Aspergillus brasiliensis (M) DSM 1988, Sabouraud-4% Dextrose-Agar, pH 5.6
Protocol: (§2) The antimicrobial properties of Velsan Flex, 4-Hydroxyacetophenone and a combination of both against bacteria, yeast and mold were investigated: For testing the inhibition of bacteria, Velsan Flex, 4-Hydroxyacetophenone or a combination of both was diluted in butylpolyglycol and added in different concentrations to liquid Caso-Agar at 50° C. and was buffered to pH 7 (+/−0.2). For testing the inhibition of yeast and mold, Velsan Flex, 4-Hydroxyacetophenone or a combination of both was diluted in butylpolyglycol and added in different concentrations to liquid Sabouraud-4% Dextrose-Agar at 50° C. and was buffered to pH 5.6 (+/−0.2). Each of the solutions was poured into a petri-dish and inoculated with the same amount of bacteria, yeast or mold respectively. The minimum inhibitory concentration (MIC) is the lowest concentration of the respective composition that inhibits the growth of the respective microorganism where the next lowest dilution fails to inhibit the growth of said microorganism.
(§3) In a similar experiment as described above the antimicrobial properties of Velsan SC, 4-Hydroxyacetophenone and a combination of both against bacteria, yeast and mold were investigated.

[6] = tested on: Aspergillus terreus IMI 45543; experiment: MIC agar dilution test, mold; settings: Aspergillus terreus (M) IMI 45543, Sabouraud-4% Dextrose-Agar, pH 5.6
Protocol: as §2, §3

[7] = tested on: Penicillium minioluteum/Penicillium purpurogenum ATCC 52427; experiment: MIC agar dilution test, mold; settings: Penicillium minioluteum/Penicillium purpurogenum (M) ATCC 52427, Sabouraud-4% Dextrose-Agar, pH 5.6
Protocol: as §2, §3

[8] = tested on: Fusarium solani IMI 322444; experiment: MIC agar dilution test, mold; settings: Fusarium solani (M) IMI 322444, Sabouraud-4% Dextrose-Agar, pH 5.6
Protocol: as §2, §3

[9] = tested on: Candida parapsilosis DSM 5784; experiment: MIC agar dilution test, yeast; settings: Lodderomyces parapsilosis, DSM5784; Candida parapsilosis (Y) DSM 5784; Sabouraud-4% Dextrose-Agar, pH 5.6
Protocol: as §2, with “microorganism. The experiments were carried out in scientifically fair conditions so that a proper comparison could be made and conclusions drawn.” for “microorganism.”

[10] = tested on: Klebsiella pneumoniae DSM 786; experiment: MIC agar dilution test, bacteria; settings: Klebsiella pneumoniae (B) DSM 786, Caso-Agar, pH 7
Protocol: as §2, §3

[11] = tested on: Staphylococcus aureus DSM 799; experiment: MIC agar dilution test, bacteria; settings: Staphylococcus aureus (B) DSM 799, Caso-Agar, pH 7
Protocol: as §2, §3

[12] = tested on: Saccharomyces cerevisiae DSM 70449; experiment: MIC agar dilution test, yeast; settings: Saccharomyces cerevisiae (Y) DSM 70449, Sabouraud-4% Dextrose-Agar, pH 5.6
Protocol: as §2, §3

[13] = tested on: Candida albicans DSM 1386; experiment: MIC agar dilution test, yeast; settings: Candida albicans (Y) DSM 1386, Sabouraud-4% Dextrose-Agar, pH 5.6
Protocol: as §2, §3

[14] = tested on: Burkholderia cepacia DSM 7288; experiment: MIC agar dilution test, bacteria; settings: Burkholderia cepacia (B) DSM 7288, Caso-Agar, pH 7

Compound: CC(=O)c1ccc(O)cc1 [4-Hydroxyacetophenone]
- Challenge test result P.a. ([1]; concentration 0.25%): F
- Challenge test result P.a. ([1]; concentration 0.5%): A
- Challenge test result S.a. ([2]; concentration 0.25%): F
- Challenge test result S.a. ([2]; concentration 0.5%): B
- Challenge test result C.a. (Candida albicans (C.a.); concentration 0.25%): F
- Challenge test result C.a. (Candida albicans (C.a.); concentration 0.5%): A
- Challenge test result A.b. ([3]; concentration 0.25%): F
- Challenge test result A.b. ([3]; concentration 0.5%): A
- Challenge test result E.c. (Escherichia coli (E.c.); concentration 0.25%, pH 7): F
- Challenge test result E.c. (Escherichia coli (E.c.); concentration 0.5%, pH 7): F
- Challenge test result E.c. (Escherichia coli (E.c.); concentration 0.5%, pH 7, listed as Hydroxyacetophenone): fails
- Challenge test criteria for all test organisms ([4]; 0.25% as single preservative (entry 5)): F
- Ability to preserve the formulation ([4]; use level 0.5%, alone (entry 6)): not sufficient to preserve the formulation

- MIC ([5]; DSM1988, read-out: MIC): 8000 µg/mL
- MIC ([6]; IMI45543, read-out: MIC): 6000 µg/mL
- MIC ([7]; Talaromyces minioluteus, ATCC52427, read-out: MIC): 6000 µg/mL
- MIC ([8]; IMI322444, read-out: MIC): 3000 µg/mL
- MIC [9]: > 10000 µg/mL
- MIC ([10]; DSM786, read-out: MIC): 8000 µg/mL
- MIC ([11]; DSM799, read-out: MIC): > 10000 µg/mL
- MIC ([12]; DSM70449, read-out: MIC): 8000 µg/mL
- MIC ([13]; DSM1386, read-out: MIC): 10000 µg/mL
- MIC ([14]; DSM7288, read-out: MIC): 4000 µg/mL (≈ 29.4 mM)
Compound: CC(=O)c1ccc(O)cc1 [10% Hydroxyacetophenone solution, 4-Hydroxyacetophenone]

Compound: Sorbitan caprylate [90% Velsan SC solution]
- MIC [5]: 4000 ppm
- MIC [6]: 1500 ppm
- MIC [7]: 1500 ppm
- MIC [8]: 1500 ppm
- MIC [10]: 2000 ppm
- MIC [11]: 750 ppm
- MIC [12]: 3000 ppm
- MIC [13]: 1500 ppm
- MIC [14]: 6000 ppm

Compound: Sorbitan caprylate [Velsan SC]
- Challenge test result P.a. ([1]; concentration 0.5%): F
- Challenge test result S.a. ([2]; concentration 0.5%): B
- Challenge test result C.a. (Candida albicans (C.a.); concentration 0.5%): F
- Challenge test result A.b. ([3]; concentration 0.5%): B
- Challenge test result E.c. (Escherichia coli (E.c.); concentration 0.5%, pH 7): F
- Ability to preserve the formulation ([4]; alone, entries 8-11 (0.5%; Velsan CGE 0.5% and 0.25%)): not sufficient to preserve the formulation
